Source: patent US11266662B2, “Ganaxolone for use in prophylaxis and treatment of postpartum depression” (Marinus Pharmaceuticals, Inc., priority 2018, dated 2022)

Columns and labels:
dogs [1] = assay: Cardiovascular safety pharmacology in dogs, single dose; assay type: in vivo, dog; settings: single dose of up to 15 mg/kg
Experimental: (§1) Safety pharmacology studies were conducted with ganaxolone.

[2] = as above; assay type: in vivo, dog; settings: dog, in vivo, single dose of up to 15 mg/kg
Experimental: as §1

dogs [3] = assay: 1-year (chronic oral) dog toxicity study
[4] = 1-year (chronic oral) dog toxicity study; settings: dog, in vivo, oral, 15 mg/kg/day
[5] = Example 3 Phase 2 study of oral ganaxolone in women with PPD: expected plasma concentrations; assay type: in vivo, human
Experimental: Approximately 172 women aged 18 to 48 years with PPD are screened, and approximately 88 subjects are enrolled into a Phase 2 clinical study. The enrolled subjects are assigned to five groups.
In the first group, approximately 8 subjects are titrated to a total daily oral dose of 900 mg ganaxolone per day (administered in three divided doses per day) over 10 days, followed by a taper over 4 days. For this group ganaxolone doses are titrated from 225 mg on Day 1 to a total daily oral dose of 900 mg starting on Day 7. The ganaxolone mean trough plasma concentrations during the Days 8, 9, and 10 are predicted to be about 40 ng/ml, based on PK modelling. Bedtime doses are selected to be higher than the daytime doses, and are expected to yield plasma mean peak concentrations up to 180 ng/ml during the night on Days 8, 9 and 10.
In the third group, approximately 20 subjects receive ganaxolone administered orally at a dose of 675 mg QHS for 28 days, followed by a taper over 4 days. The trough ganaxolone levels are expected to be below 40 ng/ml.
In the fourth group, approximately 20 subjects receive orally, on the first 2 days, ganaxolone capsules 675 mg at dinner time and 675 mg at bedtime (for a total of 1,350 mg per day on the first 2 days), followed by 26 days of ganaxolone capsules 1,125 mg at dinner time (high fat diet), and a taper over 4 days. […]

rats = assay: IV toxicity in rats, 14 days; settings: continuous IV dosing for 14 days
[6] = IV toxicity in rats, 14 days; settings: rat, in vivo, iv
female rats = assay: Pulmonary safety pharmacology in female rats; assay type: in vivo, rat; settings: doses up to 40 mg/kg
Experimental: as §1

[7] = Human pharmacokinetics after oral administration; settings: in vivo
rats or mice = assay: Reproductive and developmental toxicity

**Q.** With `CC(=O)[C@H]1CC[C@H]2[C@@H]3CC[C@H]4C[C@](C)(O)CC[C@]4(C)[C@H]3CC[C@]12C` [ganaxolone, 3α-hydroxy-3β-methyl-5α-pregnan-20-one] as the molecule, how does the “Effect on cardiovascular parameters” value (dogs [1]) read?
**A.** no effect on cardiovascular parameters

**Q.** What about the AUC(0-t) ([2]; read-out: AUC(0-24)) of the same molecule?
**A.** 10000 ng·h/mL

**Q.** And the Cmax ([2]; read-out: Maximum concentration [Cmax])?
**A.** 1000 ng/mL

**Q.** And the “Findings associated with mean Cmax greater than 1500 ng/mL” value (dogs [3]; 10 and 15 mg/kg/day)?
**A.** increased weight and total plasma cholesterol levels

**Q.** And the “ECG / heart rate finding” value (dogs [3]; after 3 months of dosing, in 4 animals (>190 bpm))?
**A.** transient sinus tachycardia

**Q.** What about the Cmax [4] of the same molecule?
**A.** > 1500 ng/mL

**Q.** What about the “Expected plasma mean peak concentrations during the night” value ([5]; first group, Days 8, 9 and 10) of the same molecule?
**A.** up to 180 ng/ml

**Q.** What about the “Expected trough ganaxolone levels” value ([5]; third group: 675 mg QHS orally for 28 days) of the same molecule?
**A.** below 40 ng/ml

**Q.** And the “Clinical pathology parameters or histopathology” value (rats)?
**A.** no ganaxolone-related changes

**Q.** What about the NOAEL at 14 days ([6]; female) of the same molecule?
**A.** 30 mg/kg/day

**Q.** And the NOAEL at 14 days ([6]; male)?
**A.** 42 mg/kg/day

**Q.** And the Pulmonary effects (female rats)?
**A.** No pulmonary effects were observed

**Q.** And the Cmax [7]?
**A.** 200 to 300 ng/mL

**Q.** And the “Fertility and early embryonic development” value (rats or mice; rats)?
**A.** no effects on fertility and early embryonic development

**Q.** What about the Teratogenicity (rats or mice; rats or mice) of the same molecule?
**A.** not teratogenic
